Experimental findings from patent US20040141944A1, “Inhibition of xenoreactive antibodies” (priority 1998, published 2004) are described below.

Data set [1] relates to kidney from a transgenic pig expressing human CD59, human CD46 and human DAF. As to the kind of experiment: transgenic pig kidney transplant into TPC-treated baboon. It counts as in vivo. The procedure:
Immunoapheresis #1 reduced circulating IgM XNA levels to 40% of pretreatment levels. Two days later, a rebound to about 50% of pretreatment levels was observed, and after a second immunoapheresis plus administration of 250 mg TPC, circulating IgM xXNA levels were undetectable. Three days later, a rebound in IgM XNA to 35% pretreatment levels occurred, and administration of 250 mg TPC brought these levels to about 5%. […] On day 31, a kidney from a transgenic pig expressing human CD59, human CD46 and human DAF was transplanted into the baboon, and a bilateral nephrectomey was performed on the baboon native kidneys. Thus, the baboon was dependent upon the porcine kidneys for physiological function.

For data set [2], the system named is circulating anti-Gal ASC (IgM and IgG). As to the kind of experiment: in vivo effects of TPC administration on circulating anti-Gal ASC (ELISPOT). Set-up: species or system cynomologous monkeys. The protocol:
To each well of the first 10 columns of a sterile hydrazine modified polystyrene 96-well plate (Corning Costar, Cambridge, Mass.), 100 μL per well of a solution containing 3.2 mg/mL αGal(1,3)Gal β 1-4 GlcNAc, 3.1 mg/mL EDC and 2.4 mg/mL NHS were added in a darkened cold room and the reaction proceeded for four hours. After careful washing with sterile H2O, the plates were completely covered with plastic strips and stored at 4° C. until use. Plates were blocked with sterile 400 ul/well of PBS/1% HSA for 2 hours at 37° C. Peripheral blood mononuclear cells were isolated by Ficoll-Hypaque (specific gravity, 1.077 g/mL; Pharmacia Fine Chemicals, Piscatawy, N.J.) density gradients at 400 g for 30 min. at 22° C. Low density mononuclear cells at the interfaces were harvested, washed twice by centrifugation (400 g for 10 min.) and resuspended in serum-free complete culture medium consisting of RPMI 1640 (GIBCO, Grand Island, N.Y.) supplemented with 1% HSA, 2 mM L-glutamine, and 100 U/mL penicillin/100 ug/mL streptomycin (GIBCO, Grand Island, N.Y.). Manual hemacytometer cell counts and viability determinations were performed using trypan blue exclusion dye. Thereafter, serial dilutions of PBMNCs (starting at 5×10^5 cells) in 100 ul of serum-free complete culture medium were added to each well and incubated for 18-24 hours at 37° C. in 5% CO2. After washing 8 times using PBS/0.1% Tween-20, the plates were incubated with biotinylated isotype specific goat anti-human Abs (biotin goat anti-human IgM Cat#62-7540; biotin goat anti-human IgG (H&L) Cat# 62-7140, Zymed, San Francisco, Calif.)(1:1000) at 37° C. for 4 hours. After washing, streptavidin conjugated alkaline phosphatase (Cat# 43-4322, Zymed, San Francisco, Calif.) (1:1000) was added for 30 min. at 37° C. Finally, after washing an additional 8 times with PBS/0.1% Tween-20, 5-Bromo-4-chloro-3indolyl-phosphate (Cat# B-8503, Sigma, St. Louis, Mo.) dissolved in 1% low-melt sea-plaque agarose (FMC Bioproducts, Cat#50101) was added as gel substrate to each well. Plates were incubated overnight in the dark at room temperature and single Ab-secreting, spot forming cells (ASC) were visualized, analyzed and counted under low magnification using an inverted phase microscope. Data represents total isotype specific anti-gal Ab-secreting cells/10^6 PBMNCs, calculated from serially diluted cell samples.
To investigate the in vivo response of circulating anti-Gal ASC to TPC administration, we measured the number of ASC per 10^6 peripheral blood mononuclear cells isolated from cynomologous monkeys treated with either TPC (410S) or blocked-PEG as control. Blocked PEG is a 4-arm, 10,000 MW PEG-amine that was reacted with acetic anhydride in order to block the amine-groups of the PEG. Briefly, heparinized peripheral blood samples (2-3 mL) from TPC and PEG treated monkeys were obtained prior to experimentation, after 6 dosages of TPC, 7 days following porcine heart transplantation with daily infusions, 7 days post infusion termination, and 18 days post infusion. Mononuclear cells were isolated via Ficoll-Hypaque gradient centrifugation and assayed for anti-Gal IgM and IgG ASC using the ELISPOT assay as described in Example 15. […] In contrast, the number of IgG ASC in the PEG treated animal increased 14.9-fold with no detectable change in the number of IgM ASC. Seven days after the termination of TPC treatment, 14 days post transplantation, circulating IgG and IgM ASC were 27-84% and 1.3-9.8% of baseline values, respectively. In the PEG treated monkey, IgG ASC were 4.4 above baseline and IgM ASC levels reduced 51%.

The test system of data set [3] is Purified CD19+B cells. Put plainly: effect of TPC on T cell-independent anti-Gal B cell activation (ELISPOT). It counts as cell-based. The settings on record: TPC (410S) 1 mg/mL pretreatment 30 min or 50 ug/mL daily; 5 day culture with SAC, IL-2, IL-4, anti-CD40. The procedure: To each well of the first 10 columns of a sterile hydrazine modified polystyrene 96-well plate (Corning Costar, Cambridge, Mass.), 100 μL per well of a solution containing 3.2 mg/mL αGal(1,3)Gal β 1-4 GlcNAc, 3.1 mg/mL EDC and 2.4 mg/mL NHS were added in a darkened cold room and the reaction proceeded for four hours. After careful washing with sterile H2O, the plates were completely covered with plastic strips and stored at 4° C. until use. Plates were blocked with sterile 400 ul/well of PBS/1% HSA for 2 hours at 37° C. Peripheral blood mononuclear cells were isolated by Ficoll-Hypaque (specific gravity, 1.077 g/mL; Pharmacia Fine Chemicals, Piscatawy, N.J.) density gradients at 400 g for 30 min. at 22° C. […] Plates were incubated overnight in the dark at room temperature and single Ab-secreting, spot forming cells (ASC) were visualized, analyzed and counted under low magnification using an inverted phase microscope. Data represents total isotype specific anti-gal Ab-secreting cells/10^6 PBMNCs, calculated from serially diluted cell samples.
Purified CD19+B cells were obtained by positive selection with the use of anti-CD19+ immunomagnetic beads (Pan-B (CD19); Dynal, Lake Success, N.Y.). […] Following the 5 day culture period, cells were washed extensively, counted, viability determined and the number of ASC determined using the anti-Gal ELISPOT assay. […]

Setting [4] is: day 7 post transplantation (porcine transgenic heart), daily TPC.
[5] abbreviates: seven days after termination of TPC treatment, 14 days post transplantation.

Turning to “(αGal(1,3)Gal β 1-4 GlcNAc)4-PEG [Example 410S]”, the “pathology analysis of the explanted pig kidney” value in data set [1] (Baboon 376-96, transplant on day 31, euthanized post-op day 4) is “no evidence of hyperacute rejection”. In addition, the “function of the transplanted kidney” value in data set [1] (Baboon 376-96, transplant on day 31 with bilateral nephrectomy) was “primary nonfunction”. In addition, in data set [2] (18 days post TPC termination), the “IgG ASC values” was “returned to near normal baseline values”. In data set [2] (setting [4]), the “circulating IgG ASC levels decreased” value was 70-99.7% and the “circulating IgM ASC levels decreased” value is reported as 98.5-100%. Further, the “circulating anti-Gal ASC (IgM and IgG) numbers inhibited” value in data set [2] (following 6 dosages of TPC over 18 days) is listed as 70-99%. Further, in data set [2] (setting [5]), the “circulating IgG ASC, % of baseline values” was 27-84% and the “circulating IgM ASC, % of baseline values” was 1.3-9.8%. For the same substance, in data set [3], the “effect on the number of detectable ASCs” value is given as “no effect”; the “effect on total cell yield and viability” value is given as “no effect”.
